# Experiments:
# [1] = target: WNK-regulated kinase SPAK (Ste20-like proline/alanine-rich kinase) (Homo sapiens, UniProt Q9UEW8); conditions: literature (Kikuchi et al. 2014); cited from earlier work
# [2] = tested on: 5/6 Nx (CKD) WT mice; assay: 5/6 nephrectomy CKD model, closantel orally via the diet over 8 weeks; type: in vivo
# Protocol: The 5/6 nephrectomy (5/6 Nx) was performed in two stages (Leelahavanichkul A et al., Kidney Int. 78, 2010. 1136-1153) under isoflurane anesthesia (Fig. 1A). Pain was managed by s.c. injections of buprenorphine, metamizol and meloxicam. Additionally, the animals were treated for 3 days postsurgery with the analgesic piritramid via the drinking water, starting 6 h postsurgery. At the first stage (wk -1), the left kidney was decapsulated to avoid ureter and adrenal damage, and the upper and lower poles were partially resected via a left flank incision. Bleeding was controlled by microfibrillar collagen hemostasis (Avitene, Davol, Cranston, RI). The upper and lower poles were weighed. One week later, the entire right kidney was removed via a right flank incision and weighed. Animals with insufficient kidney resection as determined by a ratio of < 0.55 for the removed left kidney weight to the removed right kidney weight were euthanized. In the Sham surgery control mice, a left flank incision was performed at step 1, both poles of kidney were identified, then the flank incision was closed; a subsequent right flank incision was performed at step 2; the right renal artery was identified, then the flank incision was closed. After each flank incision, muscles and skin were repositioned and sewed. Mortality was tracked throughout the study. Necropsy was not performed on animals that died early.
# For this experiment, WT Sham and 5/6-Nx mice were fed powdered rescue diet throughout the study. Closantel (Abcam) was dissolved in 100% ethanol (vehicle), and mixed into the moistened diet. To achieve a loading dose of 5 mg/kg body weight, the drug was mixed into the food at an initial concentration of 30 mg/kg diet. […] All mice were killed 8 weeks postsurgery.
# Central arterial pressure and cardiac hemodynamic parameters were assessed using a SPR-671NR pressure catheter (1.4 French; Millar Instruments). Mice were anesthetized with 1.5% isoflurane in oxygen. The catheter was inserted into the ascending aorta for measurement of central arterial pressure. Parameters of LV function (i.e., maximum rate of the pressure rise, contractility index, end-diastolic pressure, and isovolumetric relaxation time) were measured by placing the catheter into the left ventricle. All pressure recordings were performed at the same anesthesia level. Hemodynamic measurements were recorded over 5 min, and traces were analyzed using LabChartPro software and a blood pressure (BP) module. After pressure measurements, all animals were euthanized.
# The blood volume was determined from plasma volume and hematocrit as described in Lee H B & Blaufox M D (J. Nucl. Med., 1985. 26, 72-76). Plasma volume was determined by Evans blue dye dilution (Barron W M et al., J. Clin. Invest, 1984. 73, 923-932). Briefly, 20 µl of a 0.4% (wt/vol) solution of Evans blue (Sigma) in sterile physiological saline was injected into a tail vein. Blood samples (10 µl) were collected at 10 min and 30 min after injection to measure disappearance kinetics. Tubes were centrifuged and the hematocrit was recorded. Evans blue concentration in the plasma was measured in duplicate as optical density using the 2-wavelength method.
# Total kidney homogenates, kidney cortex homogenates or total cell membrane preparations were solubilized in Laemmli sample buffer, fractionated on SDS- PAGE (30 µg/well) and transferred to a nitrocellulose membrane (Thermo Scientific). […] After washing, membranes were incubated with horseradish peroxidase-conjugated secondary antibodies (Amersham Life Sciences). Specific signal was visualized by ECL kit (Amersham Life Sciences). The protein bands were quantified by Image Quant 5.0 software (Molecular Dynamics). Loading of the samples was normalized to Ponceau S stain. The expression levels were normalized to β-actin expression. […]
# [3] = in vivo, cited from earlier work
# [4] = tested on: renal distal tubules; assay: Intracellular Na+ imaging by 2-photon microscopy in SBFI-loaded live kidney slices ex vivo; type: cell-based, mice; conditions: Klotho/VDR kidney slices; co-treatment with 200 ng/ml rFGF23, 2 h; closantel 30 ng/mL; BF 15 µM; PD173074 10 nM (iFGFR1) or 25 nM (FGFR1/3); iFGFR pan 120 nM
# Protocol: (§1) The preparation of kidney slices for ex vivo experiments was performed as described in Andrukhova O et al. (EMBO J., 2014. 33, 229-246). Longitudinal 200-µm-thick live slices from freshly isolated kidneys of 3-month-old male WT and Klotho/VDR mice were prepared using a Leica VT1000 Vibratome (Leica Microsystems), and were used for ex vivo treatment with various substances as described below.
# (§2) Longitudinal 200-µm-thick live slices of freshly isolated kidneys were prepared using a Leica VT1000 Vibratome (Leica Microsystems). For Na^+ imaging, the kidney slices of WT and Klotho/VDR mice were incubated for 60 min at 37°C with 2 µM of the sodium-sensitive dye SBFI (Molecular Probes), diluted in DMSO (Merck Millipore International) and 20% Pluronic (Merck Millipore International). For Ca^2+ imaging, the kidney slices were incubated for 30 min at 37°C with 2 µM of the calcium-sensitive dye Fluo-4 (Molecular Probes), diluted in DMSO and 20% Pluronic. Thereafter, the slices were washed two times for 20 min each in 0.1M PBS, and were subsequently incubated in vitro with vehicle (PBS), rFGF23 R176/179Q [(100 or 200 ng/ml) kindly provided by Amgen Inc., Thousand Oaks, CA, USA], PD173074 (Sigma-Aldrich) (10 nM for inhibiting FGFR1 and 25 nM for inhibiting FGFR1 and 3), pan FGFR inhibitor [(120 nM) FIIN1 hydrochloride, Tocris Bioscience, Bristol, UK)], WNK signalling inhibitor Closantel (30 ng/mL, generous gift of Dario R. Alessi) alone or combined at 37°C, 5% CO2 / 95% air humidified atmosphere for 2 h. […] For visualization of intracellular Na^+ and Ca^2+ content, SBFI or Fluo-4 were excited by a Ti:sapphire laser (Chameleon, Coherent Inc.) at 820 nm. Images (512 × 512 pixels) were acquired every 30 sec at a depth of 60 - 80 µm. Fluorescence images were analyzed using Image J software. The whole epithelial layer of the distal tubules was selected by manually drawing the region of interest (ROI) to quantify intracellular Na^+ and Ca^2+ levels. Fluorescence intensity was quantified in 4-9 ROIs per image, and the ratio between the fluorescence intensity and the ROI area was calculated for each tubule. This ratio was used for all subsequent calculations.
# (§3) To gain more insight into the functional role of the rFGF23-induced increase in distal renal tubular ion channel expression and the FGF receptors involved, we performed intracellular Ca^2+ and Na^+ imaging by 2-photon microscopy in Fluo-4- or SFBI-loaded and subsequently rFGF23-treated (100 or 200 ng/ml for 2 h), 200-µm-thick renal slices prepared from WT and Klotho/VDR mice.
# (§4) In this example it was assessed whether the Klotho-independent FGF23 signalling pathway is mediated through FGFR3 and/or 4, given that FGFR2 expression was low in distal renal tubules (Figure 12A). To dissect between the latter receptors, Klotho/VDR kidney slices were treated with rFGF23 alone or in combination with an FGFR1/FGFR3 inhibitor and the WNK signalling inhibitor closantel.
# [5] = tested on: renal distal tubules; assay: Intracellular Ca2+ imaging by 2-photon microscopy in Fluo-4-loaded live kidney slices ex vivo; type: cell-based, mice; conditions: Klotho/VDR kidney slices; co-treatment with 200 ng/ml rFGF23, 2 h; ruthenium red 10 µM; closantel 30 ng/mL; PD173074 10 nM (iFGFR1) or 25 nM (FGFR1/3); iFGFR pan 120 nM
# Protocol: as §1, §2, §3, §4
# [6] = Western blotting, renal total homogenates, CKD mice, 8 weeks postsurgery
# [7] = oral via diet once a week, 8 weeks postsurgery
compound,measurement,setting,value
"Cc1cc(C(C#N)c2ccc(Cl)cc2)c(Cl)cc1NC(=O)c1cc(I)cc(I)c1O (centres unmarked) [closantel, N-[5-chloro-4-[(4-chlorophenyl)-cyanomethyl]-2-methylphenyl]-2-hydroxy-3,5-diiodobenzamide]",inhibition of the WNK-regulated kinase SPAK,[1],potent inhibitors
same,urinary excretion of Na^+,"[2]; CKD mice, 8 weeks postsurgery",increased
same,disease progression in CKD mice,"[2]; Figure 13 legend, oral via diet once a week over 8 weeks",largely protects
same,renal pNCC expression,[2]; [6],downregulation
same,renal pNKCC expression,[2]; [6],downregulation
same,renal pWNK1 expression,[2]; [6],downregulation
same,CKD-induced increase in HW/BW ratio,[2]; [7],largely prevented
same,CKD-induced increase in blood pressure,[2]; [7],largely prevented
same,CKD-induced increase in blood volume,[2]; [7],largely prevented
same,CKD-driven decline in GFR,"[2]; oral via diet once a week, loading dose 5 mg/kg body weight, 8 weeks postsurgery",largely prevented
same,bioavailability,[3]; po,~50%
same,plasma half-life,[3],14 days
same,rFGF23-induced increase in intracellular Na^+ fluorescence (distal tubular Na^+ uptake),[4],abrogated
same,rFGF23-induced increase in intracellular Ca^2+ fluorescence (distal tubular Ca^2+ uptake),[5],abrogated
